From US20220033397A1, “PHARMACEUTICAL COMPOUNDS AND THEIR USE AS INHIBITORS OF UBIQUITIN SPECIFIC PROTEASE 19 (USP19)” (ALMAC DISCOVERY LIMITED, priority 2018, published 2022)

Target: T1, Full-length USP19 (Homo sapiens, UniProt O94966)
T1 construct: Full-length USP19 was purchased from Boston Biochem (E-576); purchased Boston Biochem E-576
T1 sequence (O94966 1-1318): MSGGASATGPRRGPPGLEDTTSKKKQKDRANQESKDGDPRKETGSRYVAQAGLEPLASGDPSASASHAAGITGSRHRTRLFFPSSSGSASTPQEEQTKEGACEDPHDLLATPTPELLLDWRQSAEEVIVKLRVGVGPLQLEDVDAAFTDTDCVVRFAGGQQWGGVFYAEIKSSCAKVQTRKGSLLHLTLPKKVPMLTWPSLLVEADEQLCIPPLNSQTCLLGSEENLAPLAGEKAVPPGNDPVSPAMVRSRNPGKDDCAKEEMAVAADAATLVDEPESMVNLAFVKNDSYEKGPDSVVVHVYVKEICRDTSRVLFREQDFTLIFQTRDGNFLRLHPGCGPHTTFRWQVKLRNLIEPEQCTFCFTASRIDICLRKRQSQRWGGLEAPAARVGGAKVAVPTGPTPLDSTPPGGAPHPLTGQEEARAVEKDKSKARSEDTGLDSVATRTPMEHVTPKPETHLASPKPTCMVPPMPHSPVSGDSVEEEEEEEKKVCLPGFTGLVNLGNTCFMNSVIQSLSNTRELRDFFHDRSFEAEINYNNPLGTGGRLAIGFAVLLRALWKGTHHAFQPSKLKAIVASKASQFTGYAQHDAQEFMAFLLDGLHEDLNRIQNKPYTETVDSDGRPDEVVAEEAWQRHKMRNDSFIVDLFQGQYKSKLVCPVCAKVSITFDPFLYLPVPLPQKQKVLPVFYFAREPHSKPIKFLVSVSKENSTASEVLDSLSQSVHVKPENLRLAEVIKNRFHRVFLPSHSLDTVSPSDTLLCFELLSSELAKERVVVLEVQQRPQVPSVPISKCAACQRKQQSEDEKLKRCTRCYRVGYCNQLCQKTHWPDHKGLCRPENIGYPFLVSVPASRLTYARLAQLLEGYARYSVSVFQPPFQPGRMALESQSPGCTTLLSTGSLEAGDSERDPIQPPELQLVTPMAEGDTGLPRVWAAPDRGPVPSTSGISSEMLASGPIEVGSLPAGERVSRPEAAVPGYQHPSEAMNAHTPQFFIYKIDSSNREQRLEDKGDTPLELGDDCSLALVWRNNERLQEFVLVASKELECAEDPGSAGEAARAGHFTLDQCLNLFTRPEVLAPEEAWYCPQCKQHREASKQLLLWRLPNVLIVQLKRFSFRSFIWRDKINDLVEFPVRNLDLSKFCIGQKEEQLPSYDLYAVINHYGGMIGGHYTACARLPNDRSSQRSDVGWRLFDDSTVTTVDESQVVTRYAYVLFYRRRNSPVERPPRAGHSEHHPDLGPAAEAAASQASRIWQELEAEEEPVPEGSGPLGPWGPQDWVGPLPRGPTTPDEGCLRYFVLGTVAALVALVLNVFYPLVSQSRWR
Assay: USP19 fluorescence polarisation (FP) homogeneous assay with Ubiquitin-Lys-TAMRA substrate
Format: biochemical
Conditions: 2.5 nM USP19, 30 min pre-incubation, average of at least two duplicate experiments
Method in brief: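 Full-length USP19 preincubated 30 min at RT with inhibitor (200 μM to 2 μM series, 8–18 points) before adding 500 nM Ubiquitin-Lys-TAMRA substrate.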

Row | IC50 [µM] | Structure (SMILES)
1 | 50 to 250 | N#Cc1ccc(CNC(=O)N2CC[C@@](O)(Cn3cnc(-c4ccccc4)cc3=O)C3(CCCC3)C2)cc1 [Example 215, (S)—N-(4-Cyanobenzyl)-10-hydroxy-10-((6-oxo-4-phenylpyrimidin-1(6H)-yl)methyl)-7-azaspiro[4.5]decane-7-carboxamide]
2 | < 0.5 | O=C(NCc1cccc(F)c1)N1CC[C@@](O)(Cn2cnc(-c3ccccc3)cc2=O)C2(CCCC2)C1 [Example 216, (S)—N-(3-Fluorobenzyl)-10-hydroxy-10-((6-oxo-4-phenylpyrimidin-1(6H)-yl)methyl)-7-azaspiro[4.5]decane-7-carboxamide]
3 | 5 to 50 | O=C(NCc1ccc2c(c1)OCO2)N1CC[C@@](O)(Cn2cnc(-c3ccccc3)cc2=O)C2(CCCC2)C1 [Example 217, (S)—N-(Benzo[d][1,3]dioxol-5-ylmethyl)-10-hydroxy-10-((6-oxo-4-phenylpyrimidin-1(6H)-yl)methyl)-7-azaspiro[4.5]decane-7-carboxamide]
4 | 5 to 50 | O=C(NCc1noc(C2CC2)n1)N1CC[C@@](O)(Cn2cnc(-c3ccccc3)cc2=O)C2(CCCC2)C1 [Example 218, (S)—N-((5-Cyclopropyl-1,2,4-oxadiazol-3-yl)methyl)-10-hydroxy-10-((6-oxo-4-phenylpyrimidin-1(6H)-yl)methyl)-7-azaspiro[4.5]decane-7-carboxamide]
5 | < 0.5 | O=C(NCc1ccco1)N1CC[C@@](O)(Cn2cnc(-c3ccccc3)cc2=O)C2(CCCC2)C1 [Example 219, (S)—N-(Furan-2-ylmethyl)-10-hydroxy-10-((6-oxo-4-phenylpyrimidin-1(6H)-yl)methyl)-7-azaspiro[4.5]decane-7-carboxamide]
6 | < 0.5 | O=C(N1CC[C@@](O)(Cn2cnc(Cl)cc2=O)C2(CCCC2)C1)N1CCOC[C@H]1c1ccccc1 [Example 220, 6-Chloro-3-(((S)-10-hydroxy-7-((R)-3-phenylmorpholine-4-carbonyl)-7-azaspiro[4.5]decan-10-yl)methyl)pyrimidin-4(3H)-one]
7 | 0.5 to 5 | O=C(N1CC(C(F)(F)F)C1)N1CC[C@@](O)(Cn2cnc(-c3ccccc3)cc2=O)C2(CCCC2)C1 [Example 221, (S)-3-((10-Hydroxy-7-(3-(trifluoromethyl)azetidine-1-carbonyl)-7-azaspiro[4.5]decan-10-yl)methyl)-6-phenylpyrimidin-4(3H)-one]
8 | < 0.5 | O=C(N1CC[C@@](O)(Cn2cnc(C3CC3)cc2=O)C2(CCCC2)C1)N1CCOC[C@H]1c1ccccc1 [Example 222, 6-Cyclopropyl-3-(((S)-10-hydroxy-7-((R)-3-phenylmorpholine-4-carbonyl)-7-azaspiro[4.5]decan-10-yl)methyl)pyrimidin-4(3H)-one]
9 | < 0.5 | O=C(N1CC[C@@](O)(Cn2cnc(N3CCCC3)cc2=O)C2(CCCC2)C1)N1CCOC[C@H]1c1ccccc1 [Example 223, 3-(((S)-10-Hydroxy-7-((R)-3-phenylmorpholine-4-carbonyl)-7-azaspiro[4.5]decan-10-yl)methyl)-6-(pyrrolidin-1-yl)pyrimidin-4(3H)-one]
10 | < 0.5 | Cn1nccc1-c1cc(=O)n(C[C@]2(O)CCN(C(=O)N3CCOC[C@H]3c3ccccc3)CC23CCCC3)cn1 [Example 224, 3-(((S)-10-Hydroxy-7-((R)-3-phenylmorpholine-4-carbonyl)-7-azaspiro[4.5]decan-10-yl)methyl)-6-(1-methyl-1H-pyrazol-5-yl)pyrimidin-4(3H)-one]
11 | < 0.5 | Cn1cc(-c2cc(=O)n(C[C@]3(O)CCN(C(=O)N4CCOC[C@H]4c4ccccc4)CC34CCCC4)cn2)cn1 [Example 225, 3-(((S)-10-Hydroxy-7-((R)-3-phenylmorpholine-4-carbonyl)-7-azaspiro[4.5]decan-10-yl)methyl)-6-(1-methyl-1H-pyrazol-4-yl)pyrimidin-4(3H)-one]
12 | < 0.5 | CN(C)c1cc(=O)n(C[C@]2(O)CCN(C(=O)N3CCOC[C@H]3c3ccccc3)CC23CCCC3)cn1 [Example 226, 6-(Dimethylamino)-3-(((S)-10-hydroxy-7-((R)-3-phenylmorpholine-4-carbonyl)-7-azaspiro[4.5]decan-10-yl)methyl)pyrimidin-4(3H)-one]
13 | 0.5 to 5 | O=C(N1CCC(C(F)(F)F)C1)N1CC[C@@](O)(Cn2cnc(-c3ccccc3)cc2=O)C2(CCCC2)C1 (stereo partly drawn) [Example 227, 3-(((10S)-10-Hydroxy-7-(3-(trifluoromethyl)pyrrolidine-1-carbonyl)-7-azaspiro[4.5]decan-10-yl)methyl)-6-phenylpyrimidin-4(3H)-one]
14 | < 0.5 | O=C(N1CC[C@@](O)(Cn2cnc(-c3ccccc3)cc2=O)C2(CCCC2)C1)N1CCOC[C@H]1c1ccc(F)cc1 [Example 228, 3-(((S)-7-((R)-3-(4-Fluorophenyl)morpholine-4-carbonyl)-10-hydroxy-7-azaspiro[4.5]decan-10-yl)methyl)-6-phenylpyrimidin-4(3H)-one]
15 | 5 to 50 | O=C(N1CCC(O)(Cn2cnc(-c3ccccc3)cc2=O)C2(CCCC2)C1)N1CCOCC1CC1CC1 (stereo not drawn) [Example 229, 3-((7-(3-(Cyclopropylmethyl)morpholine-4-carbonyl)-10-hydroxy-7-azaspiro[4.5]decan-10-yl)methyl)-6-phenylpyrimidin-4(3H)-one]
16 | 50 to 250 | O=C(N1CCC(O)(Cn2cnc(-c3ccccc3)cc2=O)C2(CCCC2)C1)N1CCOCC1C1CCC1 (stereo not drawn) [Example 230, 3-((7-(3-Cyclobutylmorpholine-4-carbonyl)-10-hydroxy-7-azaspiro[4.5]decan-10-yl)methyl)-6-phenylpyrimidin-4(3H)-one]
17 | 5 to 50 | COCC1COCCN1C(=O)N1CCC(O)(Cn2cnc(-c3ccccc3)cc2=O)C2(CCCC2)C1 (stereo not drawn) [Example 231, 3-((10-Hydroxy-7-(3-(methoxymethyl)morpholine-4-carbonyl)-7-azaspiro[4.5]decan-10-yl)methyl)-6-phenylpyrimidin-4(3H)-one]
18 | 0.5 to 5 | CN(Cc1ccoc1)C(=O)N1CCC(O)(Cn2cnc(-c3ccccc3)cc2=O)C2(CCCC2)C1 (stereo not drawn) [Example 232, N-(Furan-3-ylmethyl)-10-hydroxy-N-methyl-10-((6-oxo-4-phenylpyrimidin-1(6H)-yl)methyl)-7-azaspiro[4.5]decane-7-carboxamide]
19 | 5 to 50 | CC1CCCN1C(=O)N1CCC(O)(Cn2cnc(-c3ccccc3)cc2=O)C2(CCCC2)C1 (stereo not drawn) [Example 233, 3-((10-Hydroxy-7-(2-methylpyrrolidine-1-carbonyl)-7-azaspiro[4.5]decan-10-yl)methyl)-6-phenylpyrimidin-4(3H)-one]
20 | 5 to 50 | CN(C(=O)N1CCC(O)(Cn2cnc(-c3ccccc3)cc2=O)C2(CCCC2)C1)C1CCC1 (stereo not drawn) [Example 234, N-Cyclobutyl-10-hydroxy-N-methyl-10-((6-oxo-4-phenylpyrimidin-1(6H)-yl)methyl)-7-azaspiro[4.5]decane-7-carboxamide]
21 | < 0.5 | O=C(N1CCC(O)(Cn2cnc(-c3ccccc3)cc2=O)C2(CCCC2)C1)N1CCOCC1c1cccs1 (stereo not drawn) [Example 235, 3-((10-Hydroxy-7-(3-(thiophen-2-yl)morpholine-4-carbonyl)-7-azaspiro[4.5]decan-10-yl)methyl)-6-phenylpyrimidin-4(3H)-one]
22 | 5 to 50 | O=C(N1CCC(O)(Cn2cnc(-c3ccccc3)cc2=O)C2(CCCC2)C1)N1CCC12CCOC2 (stereo not drawn) [Example 236, 3-((10-Hydroxy-7-(6-oxa-1-azaspiro[3.4]octane-1-carbonyl)-7-azaspiro[4.5]decan-10-yl)methyl)-6-phenylpyrimidin-4(3H)-one]
23 | 5 to 50 | O=C(N1CCC(C2CC2)C1)N1CCC(O)(Cn2cnc(-c3ccccc3)cc2=O)C2(CCCC2)C1 (stereo not drawn) [Example 237, 3-((7-(3-Cyclopropylpyrrolidine-1-carbonyl)-10-hydroxy-7-azaspiro[4.5]decan-10-yl)methyl)-6-phenylpyrimidin-4(3H)-one]
24 | 5 to 50 | CN(Cc1ccns1)C(=O)N1CCC(O)(Cn2cnc(-c3ccccc3)cc2=O)C2(CCCC2)C1 (stereo not drawn) [Example 238, 10-Hydroxy-N-(isothiazol-5-ylmethyl)-N-methyl-10-((6-oxo-4-phenylpyrimidin-1(6H)-yl)methyl)-7-azaspiro[4.5]decane-7-carboxamide]
